# From PubChem BioAssay AID2060510 (Molecular Pharmacology Branch, DTP, NCI, 2025)
# Test system: 439559-082-T-J2-PDC spheroids viability
# Test: Anticancer human tumor 439559-082-T-J2-PDC patient-derived colon adenocarcinoma cell line growth inhibition [GQUAD]
# Conditions: for IC50: curve of first compound; for viability, T/C: stronger effect = lower value
# Outline: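 Tumor cells were grown as complex spheroids with HUVEC endothelial cells and mesenchymal stem cells as stroma. G-quadruplex stabilizers were combined with targeted agents over half-log dilutions from near the clinical Cmax, or from 10 microM.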
# [1] = second compound 0.0316 µM, first compound 0.0316 µM
# [2] = second compound 0.0316 µM, first compound 0.1 µM
# [3] = second compound 0.0316 µM, first compound 0.316 µM
# [4] = second compound 0.0316 µM, first compound 1 µM
# [5] = second compound 0.0316 µM, first compound 3.16 µM
# [6] = second compound 0.0316 µM, first compound 10 µM
# [7] = second compound 0.1 µM, first compound 0.0316 µM
# [8] = second compound 0.1 µM, first compound 0.1 µM
# [9] = second compound 0.1 µM, first compound 0.316 µM
# [10] = second compound 0.1 µM, first compound 1 µM
# [11] = second compound 0.1 µM, first compound 3.16 µM
# [12] = second compound 0.1 µM, first compound 10 µM
# [13] = second compound 0.316 µM, first compound 0.0316 µM
# [14] = second compound 0.316 µM, first compound 0.1 µM
# [15] = second compound 0.316 µM, first compound 0.316 µM
# [16] = second compound 0.316 µM, first compound 1 µM
# [17] = second compound 0.316 µM, first compound 3.16 µM
# [18] = second compound 0.316 µM, first compound 10 µM
# [19] = second compound 1 µM, first compound 0.0316 µM
# [20] = second compound 1 µM, first compound 0.1 µM
# [21] = second compound 1 µM, first compound 0.316 µM
# [22] = second compound 1 µM, first compound 1 µM
# [23] = second compound 1 µM, first compound 3.16 µM
# [24] = second compound 1 µM, first compound 10 µM
# [25] = second compound 3.16 µM, first compound 0.0316 µM
# [26] = second compound 3.16 µM, first compound 0.1 µM
# [27] = second compound 3.16 µM, first compound 0.316 µM
# [28] = second compound 3.16 µM, first compound 1 µM
# [29] = second compound 3.16 µM, first compound 3.16 µM
# [30] = second compound 3.16 µM, first compound 10 µM
# [31] = second compound 10 µM, first compound 0.0316 µM
# [32] = second compound 10 µM, first compound 0.1 µM
# [33] = second compound 10 µM, first compound 0.316 µM
# [34] = second compound 10 µM, first compound 1 µM
# [35] = second compound 10 µM, first compound 3.16 µM
# [36] = second compound 10 µM, first compound 10 µM
# 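Also: spheroids exposed to the agents for 7 days before readout.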
# 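For viability, T/C in this document: percent of luminescence signal in DMSO vehicle wells taken as 100% viability.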
structure (smiles),measurement,setting,value
COc1cccc2c1C(=O)c1c(O)c3c(c(O)c1C2=O)CC(O)(C(=O)CO)CC3OC1CC(N)C(O)C(C)O1 (stereo not drawn) + Cc1cnc(CNC(=O)c2c(=O)c3ccc(N4CCCN(C)CC4)nc3n3c2sc2ccccc23)cn1,IC50,second compound 0.0316 µM,4.05 µM
same,IC50,second compound 0.1 µM,5.35 µM
same,IC50,second compound 0.316 µM,7.15 µM
same,IC50,second compound 1 µM,6.8 µM
same,IC50,second compound 3.16 µM,4.51 µM
same,IC50,second compound 10 µM,3.83 µM
same,"viability, T/C",[1],99%
same,"viability, T/C",[2],95.1%
same,"viability, T/C",[3],87.3%
same,"viability, T/C",[4],77.6%
same,"viability, T/C",[5],48.9%
same,"viability, T/C",[6],45.3%
same,"viability, T/C",[7],101%
same,"viability, T/C",[8],96.7%
same,"viability, T/C",[9],89.6%
same,"viability, T/C",[10],70.3%
same,"viability, T/C",[11],54.3%
same,"viability, T/C",[12],45.3%
same,"viability, T/C",[13],79.9%
same,"viability, T/C",[14],73%
same,"viability, T/C",[15],69.6%
same,"viability, T/C",[16],79.3%
same,"viability, T/C",[17],57.2%
same,"viability, T/C",[18],45.9%
same,"viability, T/C",[19],70%
same,"viability, T/C",[20],73.3%
same,"viability, T/C",[21],69.7%
same,"viability, T/C",[22],63.6%
same,"viability, T/C",[23],61.6%
same,"viability, T/C",[24],44.7%
same,"viability, T/C",[25],71%
same,"viability, T/C",[26],67.2%
same,"viability, T/C",[27],65%
same,"viability, T/C",[28],60.3%
same,"viability, T/C",[29],55.3%
same,"viability, T/C",[30],41.1%
same,"viability, T/C",[31],63.3%
same,"viability, T/C",[32],67.7%
same,"viability, T/C",[33],63.1%
same,"viability, T/C",[34],54.2%
same,"viability, T/C",[35],51%
same,"viability, T/C",[36],44.2%
Cc1[nH]c2ccccc2c1CCNCc1ccc(/C=C/C(=O)NO)cc1 + Cc1cnc(CNC(=O)c2c(=O)c3ccc(N4CCCN(C)CC4)nc3n3c2sc2ccccc23)cn1,IC50,second compound 0.0316 µM,> 0.316 µM
same,IC50,second compound 0.1 µM,> 0.316 µM
same,IC50,second compound 0.316 µM,> 0.316 µM
same,IC50,second compound 1 µM,> 0.316 µM
same,IC50,second compound 3.16 µM,> 0.316 µM
same,IC50,second compound 10 µM,0.205 µM
same,"viability, T/C","second compound 0.0316 µM, first compound 0.000999 µM",101%
same,"viability, T/C","second compound 0.0316 µM, first compound 0.00316 µM",92.8%
same,"viability, T/C","second compound 0.0316 µM, first compound 0.00999 µM",99%
same,"viability, T/C",[1],90.6%
same,"viability, T/C","second compound 0.0316 µM, first compound 0.0999 µM",81.7%
same,"viability, T/C",[3],63.7%
same,"viability, T/C","second compound 0.1 µM, first compound 0.000999 µM",104%
same,"viability, T/C","second compound 0.1 µM, first compound 0.00316 µM",100%
same,"viability, T/C","second compound 0.1 µM, first compound 0.00999 µM",87.5%
same,"viability, T/C",[7],93.9%
same,"viability, T/C","second compound 0.1 µM, first compound 0.0999 µM",85.9%
same,"viability, T/C",[9],59.8%
same,"viability, T/C","second compound 0.316 µM, first compound 0.000999 µM",92.7%
same,"viability, T/C","second compound 0.316 µM, first compound 0.00316 µM",85.4%
same,"viability, T/C","second compound 0.316 µM, first compound 0.00999 µM",89.6%
same,"viability, T/C",[13],76.2%
same,"viability, T/C","second compound 0.316 µM, first compound 0.0999 µM",80.8%
same,"viability, T/C",[15],65.2%
same,"viability, T/C","second compound 1 µM, first compound 0.000999 µM",86.8%
same,"viability, T/C","second compound 1 µM, first compound 0.00316 µM",79.6%
same,"viability, T/C","second compound 1 µM, first compound 0.00999 µM",80.4%
same,"viability, T/C",[19],71.8%
same,"viability, T/C","second compound 1 µM, first compound 0.0999 µM",83.1%
same,"viability, T/C",[21],55.7%
same,"viability, T/C","second compound 3.16 µM, first compound 0.000999 µM",73.4%
same,"viability, T/C","second compound 3.16 µM, first compound 0.00316 µM",70.1%
same,"viability, T/C","second compound 3.16 µM, first compound 0.00999 µM",81.4%
same,"viability, T/C",[25],74.1%
same,"viability, T/C","second compound 3.16 µM, first compound 0.0999 µM",73.7%
same,"viability, T/C",[27],53.9%
same,"viability, T/C","second compound 10 µM, first compound 0.000999 µM",70%
same,"viability, T/C","second compound 10 µM, first compound 0.00316 µM",68.7%
same,"viability, T/C","second compound 10 µM, first compound 0.00999 µM",64.2%
same,"viability, T/C",[31],67%
same,"viability, T/C","second compound 10 µM, first compound 0.0999 µM",67.5%
same,"viability, T/C",[33],39.5%
Nc1ccn(C2OC(CO)C(O)C2(F)F)c(=O)n1 (stereo not drawn) + Cc1cnc(CNC(=O)c2c(=O)c3ccc(N4CCCN(C)CC4)nc3n3c2sc2ccccc23)cn1,IC50,second compound 0.0316 µM,0.234 µM
same,IC50,second compound 0.1 µM,0.213 µM
same,IC50,second compound 0.316 µM,0.231 µM
same,IC50,second compound 1 µM,0.174 µM
same,IC50,second compound 3.16 µM,0.171 µM
same,IC50,second compound 10 µM,0.153 µM
same,"viability, T/C",[1],87.8%
same,"viability, T/C",[2],65.9%
same,"viability, T/C",[3],41.4%
same,"viability, T/C",[4],35.3%
same,"viability, T/C",[5],27.3%
same,"viability, T/C",[6],20.8%
same,"viability, T/C",[7],81.4%
same,"viability, T/C",[8],62.3%
same,"viability, T/C",[9],43.4%
same,"viability, T/C",[10],29.8%
same,"viability, T/C",[11],27.8%
same,"viability, T/C",[12],18.4%
same,"viability, T/C",[13],84.2%
same,"viability, T/C",[14],65.4%
same,"viability, T/C",[15],42.9%
same,"viability, T/C",[16],31.9%
same,"viability, T/C",[17],25.4%
same,"viability, T/C",[18],19.2%
same,"viability, T/C",[19],74.3%
same,"viability, T/C",[20],61.7%
same,"viability, T/C",[21],37.4%
same,"viability, T/C",[22],28.8%
same,"viability, T/C",[23],26%
same,"viability, T/C",[24],27.3%
same,"viability, T/C",[25],66.9%
same,"viability, T/C",[26],56.1%
same,"viability, T/C",[27],43.5%
same,"viability, T/C",[28],28.3%
same,"viability, T/C",[29],25.7%
same,"viability, T/C",[30],19.6%
same,"viability, T/C",[31],67.2%
same,"viability, T/C",[32],56.3%
same,"viability, T/C",[33],39.3%
same,"viability, T/C",[34],29.8%
same,"viability, T/C",[35],24.6%
same,"viability, T/C",[36],22.6%
O=c1[nH]cc(F)c(=O)[nH]1 + Cc1cnc(CNC(=O)c2c(=O)c3ccc(N4CCCN(C)CC4)nc3n3c2sc2ccccc23)cn1,IC50,second compound 0.0316 µM,> 10 µM
same,IC50,second compound 0.1 µM,> 10 µM
same,IC50,second compound 0.316 µM,> 10 µM
same,IC50,second compound 1 µM,> 10 µM
same,IC50,second compound 3.16 µM,> 10 µM
same,IC50,second compound 10 µM,> 10 µM
same,"viability, T/C",[1],100%
same,"viability, T/C",[2],102%
same,"viability, T/C",[3],87.2%
same,"viability, T/C",[4],74.5%
same,"viability, T/C",[5],67%
same,"viability, T/C",[6],63.6%
same,"viability, T/C",[7],91.9%
same,"viability, T/C",[8],96.4%
same,"viability, T/C",[9],81.2%
same,"viability, T/C",[10],72.9%
same,"viability, T/C",[11],68.7%
same,"viability, T/C",[12],67.4%
same,"viability, T/C",[13],88.2%
same,"viability, T/C",[14],90%
same,"viability, T/C",[15],73.7%
same,"viability, T/C",[16],63.5%
same,"viability, T/C",[17],66.7%
same,"viability, T/C",[18],66%
same,"viability, T/C",[19],88.9%
same,"viability, T/C",[20],73.6%
same,"viability, T/C",[21],62.7%
same,"viability, T/C",[22],59.9%
same,"viability, T/C",[23],66.4%
same,"viability, T/C",[24],65.2%
same,"viability, T/C",[25],62.5%
same,"viability, T/C",[26],68.3%
same,"viability, T/C",[27],63%
same,"viability, T/C",[28],58.4%
same,"viability, T/C",[29],59.9%
same,"viability, T/C",[30],52.7%
same,"viability, T/C",[31],68.7%
same,"viability, T/C",[32],66.3%
same,"viability, T/C",[33],67.8%
same,"viability, T/C",[34],57.8%
same,"viability, T/C",[35],57.7%
same,"viability, T/C",[36],58.3%
